From patent US10301305B2 (priority 2014, dated 2019)

Columns and labels:
Format in all cases: biochemical
S. aureus DltA = S. aureus DltA (Staphylococcus aureus (strain NCTC 8325 / PS 47), UniProt Q2FZW6); assay: in vitro DltA activity assay (luminescence), S. aureus DltA; conditions: recombinant DltA, 30 min pre-incubation, 0.5 mM D-Alanine, 0.5-5 μM ATP; read-out: S. aureus DltA IC50
Method in brief: (§1)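 His-tagged recombinant DltA (expressed in E. coli BL21, Ni-NTA purified) pre-incubated 30 min with inhibitor in 50 mM Hepes pH 8.0, MgCl2, KCl, Triton X-100, DTT. Reaction with 0.5 mM D-alanine, 0.5–5 µM ATP and pyrophosphatase for 1–2 h at RT, then residual ATP read by luciferase luminescence. IC50 from 6–10 concentrations, quench-corrected.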

E. feacalis DltA = E. feacalis DltA (Enterococcus faecalis, UniProt Q830N0); assay: in vitro DltA activity assay (luminescence), E. faecalis DltA; conditions: recombinant DltA, 30 min pre-incubation, 0.5 mM D-Alanine, 0.5-5 μM ATP; read-out: E. feacalis DltA IC50
Method in brief: as §1

S. Agalactiae DltA = S. Agalactiae DltA (Streptococcus agalactiae serotype III (strain NEM316), UniProt Q8VM67); assay: in vitro DltA activity assay (luminescence), S. agalactiae DltA; conditions: recombinant DltA, 30 min pre-incubation, 0.5 mM D-Alanine, 0.5-5 μM ATP; read-out: S. Agalactiae DltA IC50
Method in brief: as §1

E. feacium DltA = E. feacium DltA (Enterococcus faecium, UniProt Q3XZT7); assay: in vitro DltA activity assay (luminescence), E. faecium DltA; conditions: recombinant DltA, 30 min pre-incubation, 0.5 mM D-Alanine, 0.5-5 μM ATP; read-out: E. feacium DltA IC50
Method in brief: as §1

Chain of E. feacium DltA (Q3XZT7 1-504): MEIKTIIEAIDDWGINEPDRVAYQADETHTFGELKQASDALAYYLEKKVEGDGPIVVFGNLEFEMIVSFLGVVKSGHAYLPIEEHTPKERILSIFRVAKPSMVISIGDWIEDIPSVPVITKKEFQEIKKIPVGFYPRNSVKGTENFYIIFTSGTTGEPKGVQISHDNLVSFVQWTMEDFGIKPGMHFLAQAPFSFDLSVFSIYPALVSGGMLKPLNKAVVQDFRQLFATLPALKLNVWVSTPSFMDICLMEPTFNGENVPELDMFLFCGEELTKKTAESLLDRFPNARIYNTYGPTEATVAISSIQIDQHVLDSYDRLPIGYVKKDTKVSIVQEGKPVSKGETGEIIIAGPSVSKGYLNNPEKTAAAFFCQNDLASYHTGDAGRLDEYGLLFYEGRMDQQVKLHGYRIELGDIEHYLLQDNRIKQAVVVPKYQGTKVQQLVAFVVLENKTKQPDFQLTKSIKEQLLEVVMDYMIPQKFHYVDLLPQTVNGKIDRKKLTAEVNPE
Chain of E. feacalis DltA (Q830N0 1-506): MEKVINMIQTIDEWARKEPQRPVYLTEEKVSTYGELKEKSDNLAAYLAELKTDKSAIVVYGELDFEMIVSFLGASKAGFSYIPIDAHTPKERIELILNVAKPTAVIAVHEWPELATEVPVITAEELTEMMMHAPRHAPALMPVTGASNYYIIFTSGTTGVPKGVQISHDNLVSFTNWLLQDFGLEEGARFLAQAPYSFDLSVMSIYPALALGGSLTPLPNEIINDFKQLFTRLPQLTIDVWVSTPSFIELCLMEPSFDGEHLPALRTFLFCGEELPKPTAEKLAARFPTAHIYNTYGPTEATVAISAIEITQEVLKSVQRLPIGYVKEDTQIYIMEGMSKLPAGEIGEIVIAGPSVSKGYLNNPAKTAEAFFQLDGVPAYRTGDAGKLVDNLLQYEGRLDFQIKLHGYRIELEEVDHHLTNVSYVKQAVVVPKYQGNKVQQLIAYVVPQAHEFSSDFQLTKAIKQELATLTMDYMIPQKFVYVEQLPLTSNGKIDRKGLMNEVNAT

Row | Compound | IC50 (S. aureus DltA) [nM] | IC50 (E. feacalis DltA) [nM] | IC50 (S. Agalactiae DltA) [nM] | IC50 (E. feacium DltA) [nM]
1 | CCn1cnc2cc(-c3cc(N(C)CCN(C)C)c(C(N)=O)c4[nH]cnc34)cc(OC)c21 [Example 152] | 13 | 16 | 2200 | 58
2 | COCCN(C)c1cc(-c2ccc3c(c2)ncn3C2CCCCC2)c2nc[nH]c2c1C(N)=O [Example 176, 1′-Cyclohexyl-6-[(2-methoxy-ethyl)-methyl-amino]-1H,1′H-[4,5′]bibenzimidazolyl-7-carboxamide] | 940 | 35 | 2300 | 190
3 | O=C(O)c1c(N2CC[C@H](CO)C2)cc(-c2ccc3c(c2)ncn3C2CCCCC2)c2nc[nH]c12 [Example 55, 1′-Cyclohexyl-6-((S)-3-hydroxymethyl-pyrrolidin-1-yl)-1H,1′H-[4,5′]bibenzimidazolyl-7-carboxylic acid] | 250 | 150 | 760 | 360
4 | CCN(CC)CCN(C)c1cc(-c2ccc3c(c2)ncn3C2CCCCC2)c2nc[nH]c2c1C(N)=O [Example 130, 1′-Cyclohexyl-6-[(2-diethylamino-ethyl)-methyl-amino]-1H,1′H-[4,5′]bibenzimidazolyl-7-carboxamide] | 73 | 36 | 790 | 170
5 | c1nc2c(-c3ccc4c(c3)ncn4C3CCCCC3)cc(N3CC4CNCC4C3)nc2[nH]1 (stereo not shown) [Example 11, 7-(1-Cyclohexyl-1H-benzimidazol-5-yl)-5-(hexahydro-pyrrolo[3,4-c]pyrrol-2-yl)-3H-imidazo[4,5-b]pyridine] | 1.4 | 19 | 260 | 30
6 | N#Cc1c(N2CC[C@H](CO)C2)cc(-c2ccc3c(c2)ncn3C2CCCCC2)c2nc[nH]c12 [Example 58, 1′-Cyclohexyl-6-((S)-3-hydroxymethyl-pyrrolidin-1-yl)-1H,1′H-[4,5′]bibenzimidazolyl-7-carbonitrile] | 180 | 120 | 8600 | 230
7 | CN(C)CCOc1cc(-c2ccc3c(c2)ncn3C2CCCCC2)c2nc[nH]c2c1C#N [Example 104] | 53 | 84 | 2400 | 390
